Data reported in patent US10028943B2, “Method for treatment of radiologically-dense breasts” (priority 2015, dated 2018).

Assays:
[1] = test system: mammography-established dense breasts; experiment: Treatment of dense breasts: oral reduced TEMPOL in a person; assay type: in vivo, human
Protocol: The reduced form of TEMPOL (TEMPOL-H) or equivalent pharmacologically-active spin label/spintrap is prepared by mixing together 2 grams of TEMPOL or a pharmacologically effective amount of another spin-label or spin trap such as methynitrosopropane, 20 grams of ascorbic acid or other reducing compound in 100 ml of distilled water. The formulation is used as is. The solution is slightly-bitter. The formulation can be administered diluted in a suitable liquid such as juice, tea, or coffee. An equivalent dry form as 10 mg of tempol mixed with 100 mg of ascorbic acid or equivalent reducing substance can be easily prepared in capsule or tablet form.
One-half ml of the above solution, comprising 10 mg TEMPOL plus 100 mg ascorbic acid, was administered orally once a day to a 50 kg person with mammography-established dense breasts.

[2] = test system: acute ischemic stroke; settings: Shuaib et al. N Engl J Med 2007; cited from earlier work
[3] = test system: breast density; experiment: Extemporaneous oral TEMPOL-H treatment for fibrocystic disease of breast; assay type: in vivo, human; settings: patient

CC1(C)CC(O)CC(C)(C)N1[O] [Tempol, 4-hydroxy-2,2,6,6-tetramethylpiperidin-1-yloxy]
efficacy of unreduced Tempol itself ([1]; same doses as reduced TEMPOL (10 mg)): effective at the same doses

CC(C)(C)[N+]([O-])=Cc1ccc(S(=O)(=O)[O-])cc1S(=O)(=O)[O-].[Na+].[Na+] [NXY-059, disulfonyl PBN]
neuroprotective efficacy [2]: effective in animal models, but not in humans

CC1(C)CC(O)CC(C)(C)N1O [TEMPOL-H, the hydroxylamine reduced form of the nitroxide 4-hydroxy-2,2,6,6-tetramethylpiperidin-1-yloxy]
mammographic clearing of breast densities ([1]; 10 mg TEMPOL plus 100 mg ascorbic acid orally once a day, 50 kg person, first results after several weeks of treatment): significant mammographic clearing of breast densities | breast densities on cessation of treatment ([1]; cessation of treatment for a few weeks): eventually reappear on cessation of treatment for a few weeks | breast densities upon reinstatement of treatment ([1]; reinstatement of treatment): breast densities reoccur | clinical signs and symptoms upon cessation of treatment ([3]; after cessation of treatment): reappeared within a few weeks | clinical signs and symptoms upon resumption of treatment ([3]; after resumption of treatment): again regressed | clearing of breast density ([3]; oral formulation of TEMPOL-H): significant clearing of breast density
